Experimental data taken from patent publication US5041426A, “Immune system enhancing 3-β-d-ribofuranosylthiazolo[4,5-d]pyridimine nucleosides and nucleotides” (priority 1988, dated 1991).
“And” between values parts separate entries of the source, which are not always exact repeats. Equal entries are not always repeated.

Experiments:
YAC-1 cells = assay: In vitro potentiation of murine natural killer cell activity (mouse spleen cells, 51Cr release); format: cell-based
Method: After incubation the cytotoxicity of the treated and untreated cells was determined against YAC-1 cells.
^a Spleen cells from mice were treated with 0.05 mM concentration of
amino acids and 5 × 10^-5 M Mercaptoethanol. The effector cells
were then tested for their cytotoxic activity against YAC1 target cells i
4 hr ^51 Cr release assay.
^a Spleen cells from mice were incubated in the absence and presence
of various compounds. After incubation, cells were suspended in complete
medium and then their cytotoxic activity was determined against YAC1
target cells as described in the text

Influenza B Virus = assay: Antiviral activity against Influenza B virus infection in mice; format: in vivo, mouse; details: for Mean Survival Time: once a day at -2 h and days 2, 4, 6
Method: Compound 7 was tested therapeutically against Influenza B Virus Infection in Mice. In addition to a saline control Ribavirin, a known antiviral, was utilized for test purposes.
hours previrus inoculation.
^c p < .001 twotailed ttest.

P8/5 tumor target cells = assay: Activation of macrophages following single injection in CBA/CaJ mice; format: in vivo; details: Mus musculus, Macrophage
Method: The activity of compound 7 with respect to its ability to activate macrophages was tested by injecting CBA/CaJ mice with a single dose of compound 7 (2 mg per mouse) and after 24 hours the cytotoxicity of the spleen cells (SC), non adherent SC and adherent SC was determined.
^a A group of four mice (CBA/CaJ) were injected with 2 mg/mouse of
compound -7 solution. Control group received saline. After 24 hours of
injection, spleens were harvested. Adherent and nonadherent cells were
separated by incubation of spleen cells on plastic plates for one hour.
Cell suspension of spleen cells, nonadherent cells (NC) and adherent cell
(AC) were prepared in complete medium. Cytotoxicity of SC, NC and AC was
then measured against P8/5 tumor t arget cells in 4 hrs and 20 hrs
chromium release assay.

P388 = assay: Response of P388 inoculated mice to various dosages, inocula and schedules; format: in vivo, mouse
Source text: For this example varying concentrations of the number of test cells utilized for P388 inoculum and concentrations of compound 7 were utilized with various schedules of drug administration.
^a P388 ascites cells were implanted ip in the concentrations
indicated in BDF1 female mice on day 0, and ip bolus injections of
drug were delivered once daily on the days indicated in the conentrations
indicated. Control mice received a 0.09% solution of NaCl delivered on th

YAC1 target cells = assay: Natural killer cell activity in old C57BL/6J mice (in vivo treatment, spleen cells); set-up: species or system mouse
Method: For this test compound 7 was injected at a dose of 1.67 mg per mouse and 3.34 mg per mouse and after a day the natural killer cell activity of the spleen cells was determined.
i.p. route. Spleens after treatment were removed, cells were isolated and […]

Structure (SMILES): Nc1nc2c(sc(=O)n2[C@@H]2O[C@H](CO)[C@@H](O)[C@H]2O)c(=O)[nH]1 [Compound 7, 5-Amino-3-β-D-ribofuranosylthiazolo[4,5-d]pyrimidine-2,7(6H)-dione]
- natural killer cell activity compared to Poly I:C (YAC-1 cells; 0.05 mM, 20 to 44 h): increased activity compared to Poly I:C
- % Natural Killer Cell Cytotoxicity (YAC-1 cells; C57BL/6J spleen cells, treatment 0 h, compound 7 at 0.05 mM): 18%
- % Natural Killer Cell Cytotoxicity (YAC-1 cells; C57BL/6J spleen cells, treatment 20 h, compound 7 at 0.05 mM): 35% and 25%
- % Natural Killer Cell Cytotoxicity (YAC-1 cells; C57BL/6J spleen cells, treatment 44 h, compound 7 at 0.05 mM): 34% and 22%
- % Natural Killer Cell Cytotoxicity (YAC-1 cells; CBA/CaJ spleen cells, treatment 0 h, compound 7 at 0.05 mM): 15% and 23%
- % Natural Killer Cell Cytotoxicity (YAC-1 cells; CBA/CaJ spleen cells, treatment 20 h, compound 7 at 0.05 mM): 34% and 62%
- % Natural Killer Cell Cytotoxicity (YAC-1 cells; CBA/CaJ spleen cells, treatment 44 h, compound 7 at 0.05 mM): 31% and 44%
- % Natural Killer Cell Cytotoxicity (YAC-1 cells; Table 21, 0.05 mM): 34.5% and 25% and 28%
- Mean Survival Time (Influenza B Virus; 50 mg/kg/day): 6.4 ± 1.5 days
- Mean Survival Time (Influenza B Virus; 100 mg/kg/day): 6.6 ± 1.1 days
- efficacy against influenza B (in words) (Influenza B Virus; Table 12): efficacy between saline, having no antiviral activity against influenza, and Ribavirin
- antiviral activity against influenza B virus, further test (Influenza B Virus; further test): little or no antiviral activity
- cytotoxicity at 2 mg (P8/5 tumor target cells; 4 h, adherent cells, 4 hrs assay): 37%
- cytotoxicity at 2 mg (P8/5 tumor target cells; 4 h, nonadherent spleen cells, 4 hrs assay): 45%
- cytotoxicity at 2 mg (P8/5 tumor target cells; 20 h, adherent cells, 20 hrs assay): 69%
- cytotoxicity at 2 mg (P8/5 tumor target cells; 20 h, nonadherent spleen cells, 20 hrs assay): 70%
- groups showing an increase in life span (P388; 26 of the 34 groups): 76%
- % Increased Life Span (P388; Study 1, 1 × 10^2 cells, 37 mg/kg/inj day 1-9): 0%
- % Increased Life Span (P388; Study 1, 1 × 10^2 cells, 37 mg/kg/inj day 1, 3 mice, printed as cures): 2 cures
- % Increased Life Span (P388; Study 1, 1 × 10^2 cells, 62 mg/kg/inj day 1-9): 33%
- % Increased Life Span (P388; Study 1, 1 × 10^2 cells, 62 mg/kg/inj day 1, 3 mice, printed as cures): 1 cure
- % Increased Life Span (P388; Study 1, 1 × 10^2 cells, 104 mg/kg/inj day 1): 0%
- % Increased Life Span (P388; Study 1, 1 × 10^2 cells, 104 mg/kg/inj day 1-9): 10%
- % Increased Life Span (P388; Study 2, 1 × 10^2 cells, 8 mg/kg/inj day 1): 9%
- % Increased Life Span (P388; Study 2, 1 × 10^2 cells, 13 mg/kg/inj day 1): 7%
- % Increased Life Span (P388; Study 2, 1 × 10^2 cells, 22 mg/kg/inj day 1): 7%
- % Increased Life Span (P388; Study 2, 1 × 10^2 cells, 37 mg/kg/inj day 1): 3%
- % Increased Life Span (P388; Study 3, 1 × 10^4 cells, 37 mg/kg/inj day 1): 2%
- % Increased Life Span (P388; Study 3, 1 × 10^4 cells, 37 mg/kg/inj day 1-9): 0%
- % Increased Life Span (P388; Study 3, 1 × 10^4 cells, 62 mg/kg/inj day 1): 0%
- % Increased Life Span (P388; Study 3, 1 × 10^4 cells, 62 mg/kg/inj day 1-9): 2%
- % Increased Life Span (P388; Study 3, 1 × 10^4 cells, 104 mg/kg/inj day 1): 0%
- % Increased Life Span (P388; Study 3, 1 × 10^4 cells, 104 mg/kg/inj day 1-9): 6%
- % Increased Life Span (P388; Study 4, 1 × 10^6 cells, 37 mg/kg/inj day 1): 0%
- % Increased Life Span (P388; Study 4, 1 × 10^6 cells, 37 mg/kg/inj day 1-9): 5%
- % Increased Life Span (P388; Study 4, 1 × 10^6 cells, 62 mg/kg/inj day 1): 0%
- % Increased Life Span (P388; Study 4, 1 × 10^6 cells, 62 mg/kg/inj day 1-9): 5%
- % Increased Life Span (P388; Study 4, 1 × 10^6 cells, 104 mg/kg/inj day 1): 9%
- % Increased Life Span (P388; Study 4, 1 × 10^6 cells, 104 mg/kg/inj day 1-9): 23%
- % Increased Life Span (P388; Study 5, 1 × 10^6 cells, 37 mg/kg/inj day 2): 0%
- % Increased Life Span (P388; Study 5, 1 × 10^6 cells, 37 mg/kg/inj day 2,4): 8%
- % Increased Life Span (P388; Study 5, 1 × 10^6 cells, 37 mg/kg/inj day 2-6): 8%
- % Increased Life Span (P388; Study 5, 1 × 10^6 cells, 62 mg/kg/inj day 2): 5%
- % Increased Life Span (P388; Study 5, 1 × 10^6 cells, 62 mg/kg/inj day 2,4): 8%
- % Increased Life Span (P388; Study 5, 1 × 10^6 cells, 62 mg/kg/inj day 2-6): 15%
- % Increased Life Span (P388; Study 5, 1 × 10^6 cells, 104 mg/kg/inj day 2): 10%
- % Increased Life Span (P388; Study 5, 1 × 10^6 cells, 104 mg/kg/inj day 2,4): 5%
- % Increased Life Span (P388; Study 5, 1 × 10^6 cells, 104 mg/kg/inj day 2-6): 12%
- toxicity (P388; Study 6, 140 mg/kg/inj day 2,4,6,8, 7 mice): toxic in one animal
- % Increased Life Span (P388; Study 6, 1 × 10^6 cells, 140 mg/kg/inj day 2): 4%
- % Increased Life Span (P388; Study 6, 1 × 10^6 cells, 140 mg/kg/inj day 2,4,6,8): 21%
- % Increased Life Span (P388; Study 6, 1 × 10^6 cells, 140 mg/kg/inj day 2,6): 20%
- % Natural Killer Cell Cytotoxicity (YAC1 target cells; 8 month old mice, 1.67 mg i.p., E:T 50:1): 14%
- % Natural Killer Cell Cytotoxicity (YAC1 target cells; 8 month old mice, 1.67 mg i.p., E:T 100:1): 19%
- % Natural Killer Cell Cytotoxicity (YAC1 target cells; 8 month old mice, 1.67 mg i.p., E:T 150:1): 23%
- % Natural Killer Cell Cytotoxicity (YAC1 target cells; 8 month old mice, 3.34 mg i.p., E:T 50:1): 17%
- % Natural Killer Cell Cytotoxicity (YAC1 target cells; 8 month old mice, 3.34 mg i.p., E:T 100:1): 28%
- % Natural Killer Cell Cytotoxicity (YAC1 target cells; 8 month old mice, 3.34 mg i.p., E:T 150:1): 38%
- % Natural Killer Cell Cytotoxicity (YAC1 target cells; 8 week old mice, 1.67 mg i.p., E:T 50:1): 15%
- % Natural Killer Cell Cytotoxicity (YAC1 target cells; 8 week old mice, 1.67 mg i.p., E:T 100:1): 20%
- % Natural Killer Cell Cytotoxicity (YAC1 target cells; 8 week old mice, 1.67 mg i.p., E:T 150:1): 24%
- % Natural Killer Cell Cytotoxicity (YAC1 target cells; 8 week old mice, 3.34 mg i.p., E:T 50:1): 17%
- % Natural Killer Cell Cytotoxicity (YAC1 target cells; 8 week old mice, 3.34 mg i.p., E:T 100:1): 27%
- % Natural Killer Cell Cytotoxicity (YAC1 target cells; 8 week old mice, 3.34 mg i.p., E:T 150:1): 31%
